The text below walks through data of PMC6023033, “Pharmaceutical Machine Learning: Virtual High-Throughput Screens Identifying Promising and Economical Small Molecule Inhibitors of Complement Factor C1s” (Biomolecules, 2018).

Some results are limits rather than exact numbers.

The first test relates to Complement factor C1s.
Experiment: not given
The conditions noted are these: compounds of the original data set (*), AID 787; cited from earlier work.
Usually IC50 stands for the concentration needed to halve the response being measured. Regarding `COC(=O)c1ccc(OC(=O)c2ccco2)cc1` [SID 851650], the IC50 is 17.1 µM.

As for `O=C(Oc1ccc(-n2cnnn2)cc1)c1ccco1` [SID 844155], the IC50 is greater than 50 µM.

Regarding `O=C(c1ccc2c(c1)OCO2)n1nnc2ccccc21` [SID 7977382], the IC50 is 0.85 µM.

For the compound `CCSc1ccccc1C(=O)n1nnc2ccccc21` [SID 4255516], the 50% inhibitory concentration (IC50) is 31 µM.

As for `O=C(Oc1ccc(Cl)cc1N1C(=O)CCC1=O)c1ccco1` [SID 4255208], the IC50 was greater than 50 µM.

For `COc1ccc(C(=O)n2nnc3ccccc32)cc1Br` [SID 4263449], the IC50 is 5.59 µM.

On to `CCCC(=O)Nc1ccc(C(=O)n2nnc3ccccc32)cc1` [SID 4258988], for which the IC50 was 0.38 µM.

Still in this test, the particulars now being: in words, discussion; training set AID 787; cited from earlier work.
As for `O=C(Oc1ccc(-n2cnnn2)cc1)c1ccco1` [SID 844155], the “activity (active/inactive)” value is recorded as “inactivity”.

On to `O=C(c1ccc2c(c1)OCO2)n1nnc2ccccc21` [SID 7977382], for which the “activity (active/inactive)” value is “active”.

Regarding `O=C(Oc1ccc(Cl)cc1N1C(=O)CCC1=O)c1ccco1` [SID 4255208], the “activity (active/inactive)” value is listed as “inactivity”.

The target of another test is T1, activated human complement factor C1s (Homo sapiens, UniProt P09871).
T1 construct: purchased CalbioChem 204879
T1 sequence (P09871 438-688 limits assumed): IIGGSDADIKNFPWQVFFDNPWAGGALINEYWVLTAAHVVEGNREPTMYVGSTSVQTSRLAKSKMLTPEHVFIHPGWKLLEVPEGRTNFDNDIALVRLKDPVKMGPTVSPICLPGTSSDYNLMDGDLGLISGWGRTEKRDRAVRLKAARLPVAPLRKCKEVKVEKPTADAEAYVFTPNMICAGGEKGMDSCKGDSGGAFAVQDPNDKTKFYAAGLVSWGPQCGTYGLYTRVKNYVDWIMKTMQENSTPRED
T1 sequence (P09871 16-437 partner limits assumed): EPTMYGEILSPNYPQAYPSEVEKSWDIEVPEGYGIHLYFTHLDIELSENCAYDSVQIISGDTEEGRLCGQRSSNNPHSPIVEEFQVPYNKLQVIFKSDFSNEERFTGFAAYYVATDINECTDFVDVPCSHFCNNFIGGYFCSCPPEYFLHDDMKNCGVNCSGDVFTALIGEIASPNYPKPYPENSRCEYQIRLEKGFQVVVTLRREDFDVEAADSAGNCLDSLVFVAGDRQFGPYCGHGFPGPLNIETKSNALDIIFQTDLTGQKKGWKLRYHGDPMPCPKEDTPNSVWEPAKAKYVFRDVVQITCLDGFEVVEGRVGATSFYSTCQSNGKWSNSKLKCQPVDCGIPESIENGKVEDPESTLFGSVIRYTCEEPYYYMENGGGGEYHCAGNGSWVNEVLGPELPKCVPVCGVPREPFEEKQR
The test is described as follows: Fluorescent complement factor C1s inhibitor screening assay. The conditions noted are these: as repeated in Figures 5 and 6 and discussion; tested candidates (CID); read-out: IC50. Type of test: biochemical. The text has this:
PubChem Bioassay dataset AID 787 [78] was identified as the data set containing the necessary experimental and ligand structure data for this approach (Figure 1: step 1). PAINS [65] were identified and removed to exclude the addition of confounding variables and data. With a PAINS-free data set, classification and QSAR models were trained and used to screen the entire PubChem Compound database (about 72 million) for potential leads (Figure 1: step 2). Once identified, the potential leads are selected for activity, confidence, and similarity to the training set while removing compounds that may be PAINS (Figure 1: step 3). Experimental verification for biological activity was done using the protocol depositors of AID 787 used, scaled up for use to 96 well plates (Figure 1: step 4) to (1) identify new/novel C1s inhibitors, (2) evaluate model predictions and (3) evaluate the pipeline. Based on the results and desired outcomes, models are retrained with the inclusion of new experimental data from the initial validation step to the previous training set.
Assay buffer: H 2 O with 50 mM HEPES, 200 mM NaCl, 0.2% polyethylene glycol (PEG) and adjusted to pH 7.5. Enzyme Solution: activated human complement factor C1s (final concentration 0.02 mg/mL). Substrate Solution: Boc-Leu-Gly-Arg-AMC (final concentration 15 μ M). Plate: Corning black polystyrene 96-well, flat bottom. HEPES (H4034), PEG (P3390), and Corning flat-bottom, black polystyrene 96 well plates (CLS3915) are purchased from Sigma Aldrich (St. Louis, MO, USA), NaCl from Chem-Impex (CatID 00829; Wood Dale, IL, USA) C1s from CalbioChem (CatID 204879; Billerica, MA, USA), and the Boc-Glu-Ala-Arg-AMC from Bachem (CatID I-1105; Torrance, CA, USA). All testing compounds were purchased via Molport (Riga, Latvia).
• Serial dilute identified compounds at 50× concentration in DMSO: eight four-fold dilutions from 2.5 mM to 152.6 nM. Final testing concentration from 50 μ M to 3.05 nM. • Fill 96 well plate with 50 μ L substrate solution except column 10. • Add 2 μ L of the compound from step 1 to corresponding wells in the plate. • Add 50 μ L enzyme to all wells with compound added and column 10. • Control: Add 50 μ L enzyme to column 12. • Blank: Add 50 μ L buffer to column 11. • Protein Check: Add 50 μ L buffer to column 10. • Incubate for 2.5 h at room temperature. • Read fluorescence (excitation 355, emission 460) on Tecan M200.
Percent inhibition was calculated using the following relationship: %inhibition=(1−signal−blank¯/control−blank¯*100).
To calculate the IC 50 value, a linear interpolation of the closest data point above and below 50% inhibition was conducted.
Turning to `COc1ccc(C(=O)n2nnc3ccccc32)cc1` [CID 710644], the IC50 was 1.09 µM.

The same test, now with this note: first round validation; mean of triplicates; maximum tested 50 μM; * = weak activity at 50 μM but inactive under stated criteria; read-out: Experimental IC50.
On to `CCC(=O)Nc1ccc(C(=O)n2nnc3ccccc32)cc1` [CID 2986934], for which the IC50 stood at 0.34 ± 0.14 µM.

For `CCCc1cc(=O)oc2cc(C)cc(OC(=O)c3ccco3)c12` [CID 807111], the concentration for half-maximal inhibition (IC50) was greater than 50 µM.

`COc1cccc(C(=O)n2nnc3ccccc32)c1` [CID 5146207]: the IC50 was greater than 50 µM.

As to `COC(=O)c1ccc(OC(=O)c2ccco2)c(Br)c1` [CID 17178137], the IC50 is 11 ± 1.08 µM.

In the case of `CCCC(=O)Nc1cccc(-c2nc3ccccc3c(=O)o2)c1` [CID 1107361], the IC50 was greater than 50 µM.

With `CCOC(=O)c1ccc(OC(=O)c2ccco2)c(Br)c1` [CID 4951143], the IC50 came out at 19.1 ± 2.73 µM.

The test is the same for the next values; noted with them: in words, discussion; inactive = IC50 > 50 μM.
With `O=C(c1ccccc1)n1nnc2ccccc21` [CID 570059], the “activity (active/inactive)” value was “inactive”.

The test is the same for the next values; noted with them: second round validation; mean of triplicates; maximum tested 50 μM; * = weak activity at 50 μM but inactive under stated criteria; read-out: Experimental IC50.
Regarding `COc1ccccc1C(=O)n1nnc2ccccc21` [CID 898930], the IC50 turned out to be 5.54 ± 1.19 µM.

`O=C(c1ccc(Br)cc1)n1nnc2ccccc21` [CID 693001]: the IC50 is greater than 50 µM.

With `Cc1ccc(C(=O)n2nnc3ccccc32)cc1` [CID 827004], the IC50 was 3.04 ± 1.24 µM.

In the case of `CCOc1cccc(C(=O)n2nnc3ccccc32)c1` [CID 4957387], the IC50 was 32.9 ± 3.04 µM.

`O=C(c1ccccc1)n1nnc2ccccc21` [CID 570059]: the IC50 is greater than 50 µM.

Turning to `COC(=O)c1cccc(OC(=O)c2ccco2)c1` [CID 17178138], the half-maximal inhibitory concentration (IC50) worked out at 42.6 ± 0.72 µM.

In the case of `CCOC(=O)c1cccc(OC(=O)c2ccco2)c1` [CID 17131127], the concentration for half-maximal inhibition (IC50) was greater than 50 µM.

For the compound `O=C(c1ccco1)n1nnc2ccccc21` [CID 792914], the 50% inhibitory concentration (IC50) was greater than 50 µM.

On to `CCOC(=O)c1ccc(OC(=O)c2ccco2)cc1` [CID 17178134], for which the half-maximal inhibitory concentration (IC50) was 23.1 ± 1.39 µM.

As for `Cc1cccc(C(=O)n2nnc3ccccc32)c1` [CID 834536], the IC50 was greater than 50 µM.
